In patent US20250120981A1, “MRTX1133 PHARMACEUTICAL COMPOSITIONS” (MIRATI THERAPEUTICS, INC., priority 2023, published 2025):
Several values for one entry are separate records, joined by “and”; a condition that tells them apart may be missing. Equal entries are not always repeated.

Assay: Pharmacokinetics in humans, MRTX1133 formulation, oral, single and multiple doses
Assay type: in vivo
Settings: for AUCExtrap, Geo Mean: geometric mean of subjects
Description: The pharmacokinetics [PK] of the MRTX1133 formulation after oral administration has been evaluated in 25 subjects across 3 escalating dose frequencies under fasting conditions (200 mg twice daily [BID], 400 mg BID, and 800 mg BID), as well as evaluation of 400 mg BID when administered with a low-fat meal (i.e., under fed conditions). The mean (+standard deviation) single-dose and multiple-dose pharmacokinetic profiles of the evaluated doses are presented in FIG. 9 and FIG. 10, respectively. Individual single- and multiple-dose PK profiles can be found in FIG. 11. For all figures, the X-axis represents nominal time of sample collection (hours [h]) and the Y-axis represents plasma concentration (ng/mL). Table 10 lists PK data following the oral administration of a single dose and multiple doses of MRTX1133 formulation by dose level and subject.

[1] = multiple oral doses of 800 mg BID, fasted, individual subjects 1-8
[2] = single oral dose of 200 mg, fasted, individual subjects
[3] = single oral dose of 400 mg with a low-fat meal, individual subjects
[4] = single oral dose of 400 mg, fasted, individual subjects
[5] = single oral dose of 800 mg, fasted, individual subjects 1-8

Compound: C#Cc1c(F)ccc2cc(O)cc(-c3ncc4c(N5C[C@H]6CC[C@@H](C5)N6)nc(OC[C@@]56CCCN5C[C@H](F)C6)nc4c3F)c12 [MRTX1133, 4-(4-((1R,5S)-3,8-diazabicyclo[3.2.1]octan-3-yl)-8-fluoro-2-(((2R,7aS)-2-fluorohexahydro-1Hpyrrolizin-7a-yl)methoxy)pyrido[4,3-d]pyrimidin-7-yl)-5-ethynyl-6-fluoronaphthalen-2-ol]
- AUC0-12 [1]: 227 ng·h/mL and 509 ng·h/mL and 130 ng·h/mL and 744 ng·h/mL and 248 ng·h/mL and 820 ng·h/mL and 264 ng·h/mL
- AUC0-12 Accumulation Ratio [1]: 0.79 and 0.20 and 0.71 and 4.46 and 1.87 and 1.41 and 1.05
- AUC0-last [1]: 227 ng · h/mL and 509 ng · h/mL and 130 ng · h/mL and 744 ng · h/mL and 248 ng · h/mL and 820 ng · h/mL and 4,458 ng · h/mL and 264 ng · h/mL
- Cmax [1]: 38.2 ng/mL and 241 ng/mL and 34.4 ng/mL and 165 ng/mL and 29.8 ng/mL and 105 ng/mL and 812 ng/mL and 72.6 ng/mL
- Cmax Accumulation Ratio [1]: 0.30 and 0.14 and 0.34 and 2.57 and 1.24 and 1.30 and 1.86 and 1.68
- Peak to Trough Ratio [1]: 15.0 and 12.5 and 17.1 and 13.8 and 2.81 and 2.88 and 10.4 and 20.0
- Tlast [1]: 12 h (7×) and 8 h
- Tmax [1]: 6.0 h and 0.5 h (3×)
- Plasma concentration (single oral dose of 200 mg, fasted, 0 h, individual subjects): BQL
- Plasma concentration (single oral dose of 200 mg, fasted, 0.5 h, individual subjects): BQL
- Plasma concentration (single oral dose of 200 mg, fasted, 1 h, individual subjects): 116 ng/mL and 6.88 ng/mL and 44.6 ng/mL (2×) and 9.39 ng/mL
- Plasma concentration (single oral dose of 200 mg, fasted, 1.5 h, individual subjects): 49.8 ng/mL and 3.38 ng/mL and 57.9 ng/mL and 41.4 ng/mL and 42.7 ng/mL
- Plasma concentration (single oral dose of 200 mg, fasted, 2 h, individual subjects): 20.4 ng/mL and 4.01 ng/mL and 26.7 ng/mL and 23.5 ng/mL and 122 ng/mL
- Plasma concentration (single oral dose of 200 mg, fasted, 48 h, individual subjects): BQL
- Plasma concentration (single oral dose of 200 mg, fasted, 72 h, individual subjects): BQL
- Plasma concentration (single oral dose of 200 mg, fasted, 96 h, individual subjects): BQL
- AUCExtrap, Geo Mean (single oral dose of 200 mg, fasted): 7.4%
- AUC0-12 [2]: 140 ng·h/mL and 89.2 ng·h/mL and 98.1 ng·h/mL and 99.3 ng·h/mL and 585 ng·h/mL
- AUC0-inf [2]: 157 ng · h/mL and 107 ng · h/mL (2×) and 103 ng · h/mL and 653 ng · h/mL
- AUC0-last [2]: 152 ng·h/mL and 89.2 ng·h/mL and 98.1 ng·h/mL and 99.3 ng·h/mL and 585 ng·h/mL
- AUCExtrap [2]: 3.42% and 16.3% and 4.88% and 7.77% and 10.4%
- Cmax [2]: 116 ng/mL and 21.0 ng/mL and 57.9 ng/mL and 44.6 ng/mL and 122 ng/mL
- Tlast [2]: 24 h and 12 h (3×) and 12^a h
- Plasma concentration (single oral dose of 400 mg with a low-fat meal, 0 h, individual subjects): BQL
- Plasma concentration (single oral dose of 400 mg with a low-fat meal, 1 h, individual subjects): 77.0 ng/mL and 18.7 ng/mL and 28.2 ng/mL and 85.1 ng/mL and 24.7 ng/mL
- Plasma concentration (single oral dose of 400 mg with a low-fat meal, 2 h, individual subjects): 83.2 ng/mL and 39.9 ng/mL and 6.47 ng/mL and 76.4 ng/mL and 12.0 ng/mL
- Plasma concentration (single oral dose of 400 mg with a low-fat meal, 3 h, individual subjects): 71.5 ng/mL and 3.84 ng/mL and 85.8 ng/mL and 13.6 ng/mL
- Plasma concentration (single oral dose of 400 mg with a low-fat meal, 4 h, individual subjects): 65.9 ng/mL and 93.9 ng/mL and 2.43 ng/mL and 99.8 ng/mL and 36.5 ng/mL
- Plasma concentration (single oral dose of 400 mg with a low-fat meal, 5 h, individual subjects): 41.4 ng/mL (2×) and 1.41 ng/mL and 163 ng/mL and 22.5 ng/mL
- Plasma concentration (single oral dose of 400 mg with a low-fat meal, 6 h, individual subjects): 59.5 ng/mL and 16.9 ng/mL and 1.02 ng/mL and 125 ng/mL and 15.5 ng/mL
- Plasma concentration (single oral dose of 400 mg with a low-fat meal, 12 h, individual subjects): BQL
- AUCExtrap, Geo Mean (single oral dose of 400 mg with a low-fat meal): 6.3%
- AUC0-12 [3]: 564 ng·h/mL and 305 ng·h/mL and 42.6 ng·h/mL and 889 ng·h/mL and 169 ng·h/mL
- AUC0-inf [3]: 651 ng · h/mL and 317 ng · h/mL and 43.2 ng · h/mL and 1,351 ng · h/mL and 200 ng · h/mL
- AUC0-last [3]: 564 ng · h/mL and 305 ng · h/mL and 42.6 ng · h/mL and 1,307 ng · h/mL and 169 ng · h/mL
- AUCExtrap [3]: 13.4% and 3.77% and 3.88% and 3.25% and 15.3%
- Cmax [3]: 83.2 ng/mL and 93.9 ng/mL and 28.2 ng/mL and 163 ng/mL and 36.5 ng/mL
- Tlast [3]: 12 h (3×) and 8 h and 96 h
- Tmax [3]: 5.0 h
- Plasma concentration (single oral dose of 400 mg, fasted, 0 h, individual subjects): BQL
- Plasma concentration (single oral dose of 400 mg, fasted, 0.5 h, individual subjects): BQL
- AUCExtrap, Geo Mean (single oral dose of 400 mg, fasted): 7.6%
- AUC0-inf [4]: 636 ng · h/mL and 98.4 ng · h/mL and 137 ng · h/mL and 169 ng · h/mL and 126 ng · h/mL and 1,950 ng · h/mL and 670 ng · h/mL
- AUCExtrap [4]: 4.07% and 4.18% and 6.90% and 10.7% and 6.70% and 13.0% and 13.4%
- Cmax [4]: 62.1 ng/mL and 62.0 ng/mL and 66.3 ng/mL and 71.0 ng/mL and 37.0 ng/mL and 281 ng/mL and 188 ng/mL
- Tlast [4]: 96 h and 12 h (6×)
- Tmax [4]: 0.5 h
- Plasma concentration (single oral dose of 800 mg, fasted, 0 h, individual subjects): BQL
- Plasma concentration (single oral dose of 800 mg, fasted, 48 h, individual subject): BQL
- Plasma concentration (single oral dose of 800 mg, fasted, 72 h, individual subject): BQL
- Plasma concentration (single oral dose of 800 mg, fasted, 96 h, individual subject): BQL
- AUCExtrap (single oral dose of 800 mg, fasted, Geo Mean of subjects): 5.6%
- AUC0-12 [5]: 287 ng · h/mL and 2,573 ng · h/mL and 182 ng · h/mL and 167 ng · h/mL and 133 ng · h/mL and 583 ng · h/mL and 3,221 ng · h/mL and 251 ng · h/mL
- AUC0-inf [5]: 317 ng · h/mL and 2,665 ng · h/mL and 185 ng · h/mL and 181 ng · h/mL and 141 ng · h/mL and 708 ng · h/mL and 4,902 ng · h/mL
- AUC0-last [5]: 315 ng · h/mL and 2,573 ng · h/mL and 182 ng · h/mL and 167 ng · h/mL and 133 ng · h/mL and 583 ng · h/mL and 4,421 ng · h/mL and 251 ng · h/mL
- AUCExtrap [5]: 4.05% and 3.44% and 1.58% and 8.08% and 5.77% and 17.7% and 9.81%
- Cmax [5]: 129 ng/mL and 1,760 ng/mL and 101 ng/mL and 64.3 ng/mL and 24.0 ng/mL and 80.5 ng/mL and 437 ng/mL and 43.3 ng/mL
- Tlast [5]: 24 h (2×) and 12 h (6×)
- Tmax [5]: 0.5 h and 12 h
